Reference: patent publication US4576956A, “Iodo propargylaminoisoxazoles as fungicides” (Shionogi & Co., Ltd., priority 1982, dated 1986)
Values after ≈ are worked out from the molar mass of the structure shown.

How the values were obtained:
Aspergillus fumigatus = assay: Test A-1 Anti-fungal Activity (MIC), microwell dilution; format: cell-based; details: in vitro, 1×10^5 cells/ml
Method: (§1) Test A-1 Anti-fungal Activity (MIC)
(§2) The concentration of the test cells was 1×10^5 cells/ml and the activity was measured by a microwell dilution method. The structure of the test compounds is referred to in the Examples.

Candida albicans M-9 = assay: as above; format: cell-based; details: M9, C. albicans M-9, in vitro, 1×10^5 cells/ml
Method: as §1, §2

Trichophyton asteroides [1] = assay: as above; format: cell-based; details: T. asteroides, in vitro, 1×10^5 cells/ml
Method: as §1
The following results (Table 1) were obtained in an anti-fungal activity test in vitro against Aspergillus fumigatus, Candida albicans M-9 and Trichophyton asteroides. The concentration of the test cells was 1×10^5 cells/ml and the activity was measured by a microwell dilution method. The structure of the test compounds is referred to in the Examples.

Candida albicans = assay: Test A-2 Anti-fungal Activity (MCC); details: 48 h, read-out: MCC (Minimal Cidal Concentration)
Method: (§12) Some MCC (Minimal Cidal Concentration) values (Table 1) were obtained against Candida albicans and Trichophyton asteroides by the following method. After the MIC value was obtained by the microwell method, a loopful amount was picked up from the medium in which no growth of the fungus was observed, inoculated into a Subrouraud's glucose agar medium and incubated at 28° C. for 2 days in the case of C. albicans and for 7 days in the case of T. asteroides.

Trichophyton asteroides [2] = assay: Test A-2 Anti-fungal Activity (MCC); details: 168 h, read-out: MCC (Minimal Cidal Concentration)
Method: as §12

[3] = tested on: Pseudoperonospora cubensis; assay: Test B-3 Control Test to Downy Mildew of Cucumber; format: in vivo; details: 500 ppm, 7 days
Method: Test B-3 Control Test to Downy Mildew of Cucumber
Each cucumber seedling was sprayed with 2.5 ml of a test solution in the same manner as in Test B-1. After the spraying, the seedlings were kept at 25°-26° C. for a day and a zoosporangium suspension or Pseudoperonospora cubensis was inoculated at a rate of five spots per leaf on a primary leaf. The treated seedlings were kept in a greenhouse for 7 days and then observed.
(2) Slight disease at the inoculation spot . . . X5
(3) A disease spot in the same size as the inoculation spot (without spreading) . . . x10
(4) A disease spot larger than the inoculation spot . . . x20
Disease degree and percent disease control were calculated in the same manner as in Test B-1.

Mycoplasma hyopneumonia = assay: growth inhibition of a swine enzootic pneumonia-causative bacteria; format: cell-based; details: one range for the listed compounds, read-out: concentration inhibiting the growth
Botrytis cinerea = assay: Test B-1 Control Test of Botrytis Rot (Gray Mold) of Cucumber; format: in vivo; details: 500 ppm, 3 days
Method: Test B-1 Control Test of Botrytis Rot (Gray Mold) of Cucumber Seedlings of Cucumber (Cultivar: Matsukaze) were planted and grown in soil in vinyl-chloride cups of 9 cm in diameter in a greenhouse. […] The treated cucumbers were kept for 3 days in a greenhouse (20° C.) and then disease degrees were counted. Standard of Evaluation […] (2) A slight soaked lesion on the reverse of the test leaf . . . × 5 (3) A slight fade of the leaf . . . × 10 (4) The inoculated part was faded and the fading expanded erosively . . . × 20 [formula]

Sclerotinia sclerotiorum = assay: Test B-2 Control Test to Sclerotinia Rot of Cucumber; format: in vivo; details: 48 h, 2 days, read-out: Percent Disease Control
Method: Test B-2 Control Test to Sclerotinia Rot of Cucumber
Cucumber seedlings were sprayed with 2.5 ml of a test solution in the same manner as in Test B-1. Afterthe spraying, the seedlings were kept at 25°-26° C. for a day and three disks of 4 mm in diameter containing mycelia of Sclerotinia sclerotiorum were put on a primary leaf and then 10 μl of PD broth were dropped on the disks. The treated seedlings were kept ina greenhouse (20° C.) for 2 days and then the diameters of the disease spots were measured by a pair of slide callipers. [formula]

[4] = tested on: Colletotrichum lagenarium; assay: Test B-4 Control Test to Anthracnose of Cucumber; format: in vivo; details: 500 ppm, 3 + 3 days
Method: Test B-4 Control Test to Anthracnose of Cucumber Each cucumber seedling was sprayed with 2.5 ml of a test solution in the same manner as in Test B-1. After the spraying, the seedlings were kept at 25°-26° C. for a day and were inoculated with five filter-paper disks of 6 mm in diameter saturated with a conidium suspension of Colletotrichum lagenarium at a concentration of 1×10^6 conidia/ml. The treated seedlings were kept in a greenhouse (25° C.) for 3 days and further kept at below 25° C. for 3 days. Standard of Evaluation The same as noted in Test B-3.

Sphaerotheca fuliginea = assay: Test B-5 Control Test to Powdery Mildew of Cucumber; format: in vivo; details: 500 ppm, 2 weeks
Method: Test B-5 Control Test to Powdery Mildew of Cucumber
Each cucumber seedling was sprayed with 2.5 ml of a test solution. The seedlings were kept at 25°-26° C. for 1 day after the spraying and then sprayed with a conidium (1×10^5 conidia/ml) of Sphaerotheca fuliginea in a 100 ppm spreader solution (containing 20% polyoxyethylene glycol alkyl phenol ether and 12% lignin sulfonate) at a rate of 25 ml/20 cups.
The seedlings were kept in a greenhouse (25° C.) for 2 weeks and then observed.
Standard of Evaluation [formula]
(§3) The percent disease control was calculated in the same manner as in Test B-1.

Pyricularia oryzae = format: in vivo; details: 500 ppm; rice plant blast, 24 hours + 7 days
Fusarium oxysporum = assay: Test B-6 Control Test to Damping-off of Cucumber; format: in vivo; details: F*, 500 ppm, soil drench, 2 weeks
Method: (§4) Test B-6 Control Test to Damping-off of Cucumber
(§5) Twenty cucumber seeds were sown into sterilized soil (150 ml) in a pot of 9 cm in diameter. The fungi, Phythium aphanidermatum, Fusarium oxysporum and Rhizoctonia solani were cultured on a wheat bran medium for 5 days and an additional 2 days thereafter were mixed with sterilized soil. The surface of the sown spots was covered with the above culture medium. A test solution (30 ml) at a prescribed concentration was poured into each pot. The pots were kept in a greenhouse (28° C.) for 1 week in the case of Pythium and Rhizoctonia and for 2 weeks in the case of Fusarium.
(§6) The disease degree was observed and percent disease degree was calculated by the following formula: […]
(§7) (1) No germination . . . x 4
(§8) (2) Germed but withered . . . x 3
(§9) (3) Disordered in 1/3 or more . . . x 2
(§10) (4) Disordered in less than 1/3 . . . x 1
(§11) (5) Not damaged . . . x 0 [formula]
as §3

Pythium aphanidermatum = assay: Test B-6 Control Test to Damping-off of Cucumber; format: in vivo; details: P*, 500 ppm, soil drench, 1 week
Method: as §4, §5, §6, §7, §8, §9, §10, §11, §3

Rhizoctonia solani = assay: Test B-6 Control Test to Damping-off of Cucumber; format: in vivo; details: R*, 500 ppm, soil drench, 1 week
Method: as §4, §5, §6, §7, §8, §9, §10, §11, §3

SMILES	MIC (Aspergillus fumigatus) [µg/mL]	MIC (Candida albicans M-9) [µg/mL]	MIC (Trichophyton asteroides [1]) [µg/mL]	Percent Disease Control (Botrytis cinerea) [%]	other results
Clc1ccccc1C(c1ccccc1)(c1ccccc1)n1ccnc1 [Ref. Comp., Clotrimazole, reference compound]	12.5 (≈ 36.2 µM)	6.3 (≈ 18.3 µM)	0.2 (≈ 0.58 µM)		MFC (Candida albicans): > 100 µg/mL; MFC (Trichophyton asteroides [2]): 6.3 µg/mL (≈ 18.3 µM)
Clc1c(-c2ccccc2)noc1NCC#CI [Comp. 2, 3-phenyl-4-chloro-5-(3-iodo-2-propynyl)aminoisoxazole]	6.2 (≈ 17.3 µM)	0.1 (≈ 0.279 µM)	0.4 (≈ 1.12 µM)		
CN(CC#CI)c1cc(C2CCCCC2)no1 [Comp. 9]					Percent Disease Control [3]: 100%; MIC (Mycoplasma hyopneumonia): 3.13 to 12.5 µg/mL (≈ 9.09 to 36.3 µM)
CN(CC#CI)c1onc2c1CCCC2 [Comp. 15]				100	MIC (Mycoplasma hyopneumonia): 3.13 to 12.5 µg/mL (≈ 9.9 to 39.5 µM)
CCN(CC#CI)c1onc(C)c1C [Comp. 21]	1.6 (≈ 5.26 µM)	1.6 (≈ 5.26 µM)	1.6 (≈ 5.26 µM)		
CN(CC#CI)c1cc(-c2ccco2)no1 [Comp. 10]	1.6 (≈ 4.88 µM)	0.8 (≈ 2.44 µM)	0.8 (≈ 2.44 µM)		
Cc1cc(N(C)CC#CI)on1 [Comp. 3]	0.8 (≈ 2.9 µM)	0.4 (≈ 1.45 µM)	1.6 (≈ 5.8 µM)		
CCc1noc(N(C)CC#CI)c1Cl [Comp. 1, 3-ethyl-4-chloro-5-(N-methyl-N-3-iodo-2-propynyl)-aminoisoxazole]	6.3 (≈ 19.4 µM)	3.1 (≈ 9.55 µM)	0.8 (≈ 2.46 µM)	100	pest or weed control at 500 ppm (Sclerotinia sclerotiorum): 100%; Percent Disease Control [3]: 100%; Percent Disease Control [4]: 100%; Percent Disease Control (Sphaerotheca fuliginea): 100%
CN(CC#CI)c1cc(-c2ccccc2)no1 [Comp. 13]	3.1 (≈ 9.17 µM)	3.1 (≈ 9.17 µM)	3.1 (≈ 9.17 µM)		Percent Disease Control (Pyricularia oryzae): 99%; MIC (Mycoplasma hyopneumonia): 3.13 to 12.5 µg/mL (≈ 9.26 to 37 µM)
CCN(CC#CI)c1cc(C)no1 [Comp. 4]	1.6 (≈ 5.52 µM)	0.8 (≈ 2.76 µM)	1.6 (≈ 5.52 µM)		MFC (Candida albicans): 25 µg/mL (≈ 86.2 µM); MFC (Trichophyton asteroides [2]): 3.1 µg/mL (≈ 10.7 µM)
Cc1cc(N(C)CC#CI)no1 [compound 32, 3-(N-methyl-N-3-iodo-2-propynyl)amino-5-methylisoxazole]	1.6 (≈ 5.8 µM)	1.6 (≈ 5.8 µM)	3.1 (≈ 11.2 µM)	100	pest or weed control at 500 ppm (Sclerotinia sclerotiorum): 100%; Percent Disease Control (Sphaerotheca fuliginea): 100%; Percent Disease Control (Fusarium oxysporum): 50%; Percent Disease Control (Pythium aphanidermatum): 100%; Percent Disease Control (Rhizoctonia solani): 100%; Percent Disease Control (Pyricularia oryzae): 98%
Cc1c(N(C)CC#CI)noc1-c1ccccc1 [compound 36]					Percent Disease Control (Pyricularia oryzae): 90%
CN(CC#CI)c1cc(-c2cccs2)no1 [Comp. 11]	3.1 (≈ 9.01 µM)	0.8 (≈ 2.32 µM)	1.6 (≈ 4.65 µM)	100	MFC (Candida albicans): 12.5 µg/mL (≈ 36.3 µM); MFC (Trichophyton asteroides [2]): 1.6 µg/mL (≈ 4.65 µM)
